{"source": "patent US11597708B2", "about": "“Inhibitors of heat shock factors and uses thereof” (HSF Pharmaceuticals SA, priority 2016, dated 2023)", "type_in_all_cases": "cell-based", "key": {"[1]": {"test_system": "SK-OV-3", "experiment": "Alamar Blue viability assay", "conditions": "Homo sapiens, Ovarian carcinoma, P53 Mut, 96-hour exposure", "method": "(§1) Cultures of HeLa cells were exposed for 96 hours to different concentrations of IHSF 001, 058 and 115, and viability was assessed using an Alamar Blue assay. It is noted that this standard assay examines attached cells only. This subject will be discussed in more detail below. […] The relative cytotoxicity of the compounds appears to parallel their respective activities as inhibitors of HSF1 function (inhibition of RLuc expression in Z74 cells). We next examined the viability of different human cancer cell lines subsequent to a 96-hour exposure to compound 115 (Table 3). HSF1 was reported as being required for optimal p21 expression and for p53-mediated cell cycle arrest in response to genotoxins. Logan, I. R. et al. (2009) Nucleic Acids Res. 37: 2962-2971. […] Cell lines of different p53 status were included in the experiments in order to find out whether sensitivity to IHSF 115 was related to p53 status. […] No effect of p53 status could be discovered. It is noted that a number of additional HSF inhibitors of the present disclosure were tested and found to effectively reduce the viability of human cancer cells."}, "[2]": {"test_system": "THP-1", "experiment": "Alamar Blue viability assay", "conditions": "Homo sapiens, Acute monocytic leukemia, P53 Mut, 96-hour exposure", "method": "as §1"}, "[3]": {"test_system": "NCI-H2228", "experiment": "Alamar Blue viability assay", "conditions": "Homo sapiens, Lung, P53 Wt, 96-hour exposure", "method": "as §1"}, "[4]": {"test_system": "sNF96.2", "experiment": "Alamar Blue viability assay", "conditions": "Homo sapiens, Malignant peripheral nerve sheath, P53 Wt, 96-hour exposure", "method": "as §1"}, "[5]": {"test_system": "NCI-H3122", "experiment": "Alamar Blue viability assay", "conditions": "Homo sapiens, Lung, P53 Wt, 96-hour exposure", "method": "as §1"}, "[6]": {"test_system": "sNF02.2", "experiment": "Alamar Blue viability assay", "conditions": "Homo sapiens, Malignant peripheral nerve sheath, P53 Wt, 96-hour exposure", "method": "as §1"}, "[7]": {"test_system": "NCI-H1975", "experiment": "Alamar Blue viability assay", "conditions": "Homo sapiens, Lung, P53 Wt, 96-hour exposure", "method": "as §1"}, "[8]": {"test_system": "HepG2", "experiment": "Alamar Blue viability assay", "conditions": "Homo sapiens, Hepatocellular, P53 Wt, 96-hour exposure", "method": "as §1"}, "[9]": {"test_system": "MCF-7", "experiment": "Alamar Blue viability assay", "conditions": "Homo sapiens, MCF7, Breast, P53 Wt, 96-hour exposure", "method": "as §1"}, "[10]": {"test_system": "T47D", "experiment": "Alamar Blue viability assay", "conditions": "Homo sapiens, Breast, P53 Mut, 96-hour exposure", "method": "as §1"}, "[11]": {"test_system": "Saos-2", "experiment": "Alamar Blue viability assay", "conditions": "Homo sapiens, Osteosarcoma, P53 Null, 96-hour exposure", "method": "as §1"}, "[12]": {"test_system": "MNNG/HOS", "experiment": "Alamar Blue viability assay", "conditions": "Homo sapiens, Osteosarcoma, P53 Mut, 96-hour exposure", "method": "as §1"}, "[13]": {"test_system": "A673", "experiment": "Alamar Blue viability assay", "conditions": "Homo sapiens, Ewing’s sarcoma, P53 Mut, 96-hour exposure", "method": "as §1"}, "[14]": {"test_system": "U-2 OS", "experiment": "Alamar Blue viability assay", "conditions": "Homo sapiens, U2OS, Osteosarcoma, P53 WT, 96-hour exposure", "method": "as §1"}, "[15]": {"test_system": "BT-20", "experiment": "Alamar Blue viability assay", "conditions": "Homo sapiens, Breast, P53 Mut, 96-hour exposure", "method": "as §1"}, "[16]": {"test_system": "MG-63", "experiment": "Alamar Blue viability assay", "conditions": "Homo sapiens, Osteosarcoma, P53 Mut, 96-hour exposure", "method": "as §1"}, "[17]": {"test_system": "A549", "experiment": "Alamar Blue viability assay", "conditions": "Homo sapiens, Lung, P53 Wt, 96-hour exposure", "method": "as §1"}, "[18]": {"test_system": "SK-N-SH", "experiment": "Alamar Blue viability assay", "conditions": "Homo sapiens, Neuroblastoma, P53 Wt, 96-hour exposure", "method": "as §1"}, "[19]": {"test_system": "PC-3", "experiment": "Alamar Blue viability assay", "conditions": "Homo sapiens, Prostate, P53 Null, 96-hour exposure", "method": "as §1"}, "[20]": {"test_system": "MDA-MB-453", "experiment": "Alamar Blue viability assay", "conditions": "Homo sapiens, Breast, P53 Mut, 96-hour exposure", "method": "as §1"}, "[21]": {"test_system": "NCI-H460", "experiment": "Alamar Blue viability assay", "conditions": "Homo sapiens, Lung, P53 Wt, 96-hour exposure", "method": "as §1"}, "[22]": {"test_system": "RPMI 8266", "experiment": "Alamar Blue viability assay", "conditions": "Homo sapiens, RPMI8266, Multiple myeloma, P53 Mut, 96-hour exposure", "method": "as §1"}, "[23]": {"test_system": "MM.1R", "experiment": "Alamar Blue viability assay", "conditions": "Homo sapiens, Multiple myeloma, P53 Wt, 96-hour exposure", "method": "as §1"}, "[24]": {"test_system": "BT-474", "experiment": "Alamar Blue viability assay", "conditions": "Homo sapiens, Breast, P53 Mut, 96-hour exposure", "method": "as §1"}, "[25]": {"test_system": "IM9", "experiment": "Alamar Blue viability assay", "conditions": "Homo sapiens, IM-9, Multiple myeloma, P53 Wt, 96-hour exposure", "method": "as §1"}, "[26]": {"test_system": "CAMA-1", "experiment": "Alamar Blue viability assay", "conditions": "Homo sapiens, Breast, P53 Mut, 96-hour exposure", "method": "as §1"}, "[27]": {"test_system": "OV56", "experiment": "Alamar Blue viability assay", "conditions": "Homo sapiens, Ovarian carcinoma, P53 Mut, 96-hour exposure", "method": "as §1"}, "[28]": {"test_system": "U266B1", "experiment": "Alamar Blue viability assay", "conditions": "Homo sapiens, Multiple myeloma, P53 Mut, 96-hour exposure", "method": "as §1"}, "[29]": {"test_system": "PEA1", "experiment": "Alamar Blue viability assay", "conditions": "Homo sapiens, Ovarian carcinoma, P53 Mut, 96-hour exposure", "method": "as §1"}, "[30]": {"test_system": "HCC1143", "experiment": "Alamar Blue viability assay", "conditions": "Homo sapiens, Breast, P53 Mut, 96-hour exposure", "method": "as §1"}, "[31]": {"test_system": "MDA-MB-231", "experiment": "Alamar Blue viability assay", "conditions": "Homo sapiens, Breast, P53 Mut, 96-hour exposure", "method": "as §1"}, "[32]": {"test_system": "human cancer cell lines", "experiment": "Viability of human cancer cell lines (overall statements)", "conditions": "96-hour exposure; sensitivity varied greatly; no effect of p53 status", "method": "as §1"}}, "data": [{"smiles": "CN(C(=O)/C=C/C1=NCCCO1)c1ncc(-c2cccnc2)s1", "note": "[IHSF 115, (E)-3-(5,6-Dihydro-4H-[1,3]oxazin-2-yl)-N-methyl-N-(5-pyridin-3-yl-thiazol-2-yl)-acrylamide]", "values": [{"measurement": "EC50", "setting": "[1]", "value": 15, "unit": "µM"}, {"measurement": "EC50", "setting": "[2]", "value": 6.9, "unit": "µM"}, {"measurement": "EC50", "setting": "[3]", "value": 12.8, "unit": "µM"}, {"measurement": "EC50", "setting": "[4]", "value": 4.2, "unit": "µM"}, {"measurement": "EC50", "setting": "[5]", "value": 11, "unit": "µM"}, {"measurement": "EC50", "setting": "[6]", "value": 8.4, "unit": "µM"}, {"measurement": "EC50", "setting": "[7]", "value": 5.1, "unit": "µM"}, {"measurement": "EC50", "setting": "[8]", "value": 5.2, "unit": "µM"}, {"measurement": "EC50", "setting": "[9]", "value": 5.2, "unit": "µM"}, {"measurement": "EC50", "setting": "[10]", "value": 4.4, "unit": "µM"}, {"measurement": "EC50", "setting": "[11]", "value": 8, "unit": "µM"}, {"measurement": "EC50", "setting": "[12]", "value": 9.2, "unit": "µM"}, {"measurement": "EC50", "setting": "[13]", "value": 1.9, "unit": "µM"}, {"measurement": "EC50", "setting": "[14]", "value": 5.2, "unit": "µM"}, {"measurement": "EC50", "setting": "[15]", "value": 8.2, "unit": "µM"}, {"measurement": "EC50", "setting": "[16]", "value": 4.6, "unit": "µM"}, {"measurement": "EC50", "setting": "[17]", "value": 18.8, "unit": "µM"}, {"measurement": "EC50", "setting": "[18]", "value": 4, "unit": "µM"}, {"measurement": "EC50", "setting": "[19]", "value": 4, "unit": "µM"}, {"measurement": "EC50", "setting": "[20]", "value": 4.2, "unit": "µM"}, {"measurement": "EC50", "setting": "[21]", "value": 9.4, "unit": "µM"}, {"measurement": "EC50", "setting": "[22]", "value": 3.6, "unit": "µM"}, {"measurement": "EC50", "setting": "[23]", "value": 1.7, "unit": "µM"}, {"measurement": "EC50", "setting": "[24]", "value": 5.2, "unit": "µM"}, {"measurement": "EC50", "setting": "[25]", "value": 2.3, "unit": "µM"}, {"measurement": "EC50", "setting": "[26]", "value": 3.5, "unit": "µM"}, {"measurement": "EC50", "setting": "[27]", "value": 6.8, "unit": "µM"}, {"measurement": "EC50", "setting": "[28]", "value": 3.9, "unit": "µM"}, {"measurement": "EC50", "setting": "[29]", "value": 4.1, "unit": "µM"}, {"measurement": "EC50", "setting": "[30]", "value": 4.8, "unit": "µM"}, {"measurement": "EC50", "setting": "[31]", "value": 2.2, "unit": "µM"}, {"measurement": "viability of human cancer cell lines", "setting": "[32]", "value": "reduced viability in all cell lines tested"}]}]}
